This is an account of results in patent US20070042026A1, “Prophylactic and therapeutic treatment of topical and transdermal drug-induced skin reactions” (priority 2005, published 2007).

The test system of data set [1] is mouse skin. Conditions: cited from earlier work; for contact sensitization in a mouse skin model (mast cell degranulating agents): in vivo.
The nature of data set [2]: DPPH* free-radical scavenging anti-oxidant assay. To be noted: absorbance at 595 nm, after 30 minutes of incubation at 25° C.; read-out: molar activity (EC50, concentration that lowers the zero time optical absorbance of DPPH by 50 percent). As for the experimental part:
Solutions of test compounds were assayed for their antioxidant activity by the free-radical scavenging method that uses diphenylpicryl hydrazine (DPPH*) reagent as described previously (Bonina et al, 2003). In order to standardize the activity, we defined for each compound, an EC50 value as the concentration that lowers the zero time optical absorbance of DPPH at 595 nm by 50 percent measured after 30 minutes of incubation at 25° C.
A general note: The DPPH test is a chemical assay of radical scavenging.

Data set [3] deals with HaCat keratinocytes. As to the kind of experiment: Retinoid-stimulated autocrine clonal growth of HaCat keratinocytes (biochemical assay for anti-irritant activity). It is filed as cell-based, human. To be noted: 10 μM, 48 hours after treatment, retinoid-stimulated autocrine growth conditions. As to the method: Since retinoids irritate skin leading to epidermal hyperplasia, we have employed an in vitro cell culture method to detect antioxidants that act to inhibit retinoid-stimulated autocrine growth of human keratinocytes.
Method: An immortalized line of human epidermal kertatinocytes, HaCat keratinocytes, can be cultured in a serum-free culture medium. Sterile Petri dishes (35 mm^2) are seeded at 5,000 cells per cm^2 and placed in a humidifed CO2 incubator at 37° C. for 3-5 days or until the culture reaches about 30% confluent monolayer growth. The dishes are washed once with ice-cold serum-free media lacking EGF and insulin, and refed 2.5 ml of serum-free culture medium containing 5 ug/ml insulin and retinyl acetate (RA, 3×10^−8 M). Duplicate control dishes are fixed and stained with 0.2% crystal violet to record the amount of clonal growth prior to refeeding with fresh RA-containing medium. Test dishes refed RA and insulin are split into three groups in duplicate. Group A is refed on the RA plus insulin medium. Group B is refed RA plus insulin medium and a […] inhibitor (PD 153035), and Group C is refed medium containing RA plus insulin and from 0.1 to 5% of a hydroalcoholic botanical extract. All dishes are adjusted to have the same final concentration of alcohol (1%). All dishes are placed back in the incubator for 2 and 4 days. They are fixed and stained with 0.2% crystal violet. […]

For data set [4], the system named is mouse skin. To be noted: cited from earlier work.
The subject of data set [5] is volar arm skin of volunteers. As to the kind of experiment: 24-hour occlusive patch (Finn chamber) anti-irritant test with 0.5% benzalkonium chloride carrier gels. The format is in vivo, human. As for the experimental part: Occlusive patch testing was conducted on extracts prepared by starch gel encapsulation in a oil-in water emulsion system previously described (Wille, 2003).
Anti-irritant assays: All carrier system gels were prepared with 0.5% benzalkonium chloride, a mild irritant. To test for anti-irritancy, the irritant-containing carrier gels were also loaded with the test botanical extracts (experimentals). The control and test gels were deposited (100 microliters) on 10 mm square circular filter paper discs and placed in side of Finn chambers (20 mm square), which were then applied to the volar arm skin of volunteers. The chambers were affixed to skin with non-allergic adhesive tape and left in place for 24 hours. Upon termination of the treatments, the chambers were removed and the skin gently wiped clean with moistened cotton swabs. The exposed skin was first examined for signs of erythema (redness) and induration (swelling), and skin sites photographed. The exposed skin sites were probed for skin capacitance (skin moisture levels) using a Corneometer instrument (Courage & Khazaka, Koln, Germany).

For data set [6] the following is noted: Rosmarinic acid 5%; cited from earlier work.

Structures are written as SMILES. pEC50: −log10 of the molar value.

As to `COc1ccc(CCN(C)CCCC(C#N)(c2ccc(OC)c(OC)c2)C(C)C)cc1OC` (stereo not shown) [Verapamil], in data set [1] (topical application of Nadolol to mouse skin), the “minimizing contact sensitization due to Nadolol” value is “effective”.

Regarding `O.O.O=c1c(O)c(-c2ccc(O)c(O)c2)oc2cc(O)cc(O)c12` [quercetin dihydrate], in data set [2], the pEC50 was 4.07. For the same compound, the “clonal growth relative to the untreated control” value in data set [3] is “completely inhibited”.

On to `O=C(O)COc1ccccc1` [Phenoxyacetic acid], for which the “skin irritation due to a panel of known skin irritants including sodium lauryl sulfate” value in data set [4] (mouse, in vivo) is “block skin irritation”. Moreover, in data set [1] (application of the hair dye to mouse skin), the “contact sensitization due to para-phenylenediamine” value is recorded as “prevent contact sensitization”.

Turning to `COc1cc(CNC(=O)CCCC/C=C/C(C)C)ccc1O` [capsaicin], the “contact sensitization in a mouse skin model (mast cell degranulating agents)” value in data set [1] was “prevent contact sensitization”.

Regarding `C=C(CC)C(=O)c1ccc(OCC(=O)O)c(Cl)c1Cl` [Ethacrynic acid], the “prevention of skin irritation due to 2,4-dinitro-chlorobenzene, arachidonic acid, phorbol myristic acid, trans-retinoic acid and lactic acid” value in data set [4] (topical application to mouse) is reported as “effective”. Moreover, the “prevention of contact sensitization due to Clonidine, Chlorpheniramine, Albuterol and Nadolol” value in data set [1] (delivery of the sensitizing drugs to mouse skin) is given as “effective”.

Regarding `O=C1O[C@H]([C@@H](O)CO)C(O)=C1O` [ascorbic acid], in data set [2], the pEC50 was 4.59.

As for `Cc1c(C)c2c(c(C)c1O)CC[C@@](C)(CCC[C@H](C)CCC[C@H](C)CCCC(C)C)O2` [vitamin E, alpha-tocopherol], the pEC50 in data set [2] was 4.34.

`CCCCCCCCCCCCCCCC(=O)OC[C@H](O)[C@H]1OC(=O)C(O)=C1O` [ascorbyl palmitate]: the pEC50 in data set [2] was 4.52.

Turning to `O=C(O)/C=C\c1c[nH]cn1` [cis-urocanic acid], the “contact sensitization in a mouse skin model (mast cell degranulating agents)” value in data set [1] was “prevent contact sensitization”.

Consider `O=C(O)c1cc(O)c(O)c(O)c1` [gallic acid, 3,4,5-trihydroxybenzoic acid], for which the “effect on benzalkonium chloride induced skin irritation” value in data set [5] (24 hour occlusion) is listed as “anti-irritant effect”. For the same compound, the irritancy to skin result in data set [5] (gallic acid alone, 24 hours of occlusion) is on record as “not irritating to skin”. The skin hydration profile entry in data set [5] (gallic acid alone, after 24 hours of occlusion) is “does not alter skin hydration profile”.

For the compound `O=C(/C=C/c1ccc(O)c(O)c1)O[C@H](Cc1ccc(O)c(O)c1)C(=O)O` [Rosmarinic acid], in data set [6], the “reduction of the irritating action of alpha-hydroxy acids (lactic and glycolic acids)” value is on record as “over three-fold”.
